This assay deals with RIPK1 (recombinant GST-RIPK1 kinase domain, residues 1-327) (Homo sapiens (Human), UniProt Q13546). As to the kind of experiment: RIPK1-ADP-Glo Enzymatic Assay. In kind it is biochemical. The conditions noted are these: ADP-Glo; 25 nM GST-RIPK1, 300 μM ATP; assay lower limit ~25 nM; read-out: RIPK1 V0 Ec50. The protocol:
RIPK1-ADP-Glo Enzymatic Assay
The enzymatic activity of RIPK1 is measured using an assay derived from ADP-Glo kit (TMPromega), which provides a luminescent-based ADP detection system. Specifically, the ADP generated by RIPK1 kinase is proportionally detected as luminescent signals in a homogenous fashion. In this context, the assessment of the inhibitory effect of small molecules (EC50) is measured by the effectiveness of the compounds to inhibit the ATP to ADP conversion by RIPK1.
In this assay, the potency (EC50) of each compound was determined from a ten-point (1:3 serial dilution; top compound concentration of 100000 nM) titration curve using the following outlined procedure. The assay bottom or lower limit of confidence is ˜25 nM. To each well of a white ProxiPlus 384 well-plate, 30 nL of compound (1% DMSO in final assay volume of 3 μL) was dispensed, followed by the addition of 2 μL of 1×assay buffer (25 mM Hepes 7.3, 20 mM MgCl2, 50 mM NaCl, 1 mM DTT, 0.005% Tween20, and 0.02% BSA) containing 37.5 nM of GST-RIPK1 (recombinant GST-RIPK1 kinase domain (residues 1-327) enzyme produced from baculovirus-transfected Sf21 cells: MW=62 kDa). Plates were placed in an ambient temperature humidified chamber for a 30-minute pre-incubation with compound. Subsequently, each reaction was initiated by the addition of 1 μL 1×assay buffer containing 900 μM ATP and […] dephosphorylated-MBP substrate. The final reaction in each well of 3 μL consists of 25 nM of GST-RIPK1, 300 μM ATP, and 3 μM dephosphorylated-MBP. Kinase reactions were allowed to proceed for 150 minutes prior to adding ADP-Glo reagents per Promega's outlined kit protocol. Dose-response curves were generated by plotting percent effect (% product conversion; Y-axis) vs. Log10 compound concentrations (X-axis). EC50 values were calculated using a non-linear regression, four-parameters sigmoidal dose-response model.
A general note: ADP-Glo first removes unused ATP, then detects ADP through luciferase.

Structures can show the parent of a compound that is named as a salt.

Chain of RIPK1 (recombinant GST-RIPK1 kinase domain, residues 1-327) (Q13546 1-327): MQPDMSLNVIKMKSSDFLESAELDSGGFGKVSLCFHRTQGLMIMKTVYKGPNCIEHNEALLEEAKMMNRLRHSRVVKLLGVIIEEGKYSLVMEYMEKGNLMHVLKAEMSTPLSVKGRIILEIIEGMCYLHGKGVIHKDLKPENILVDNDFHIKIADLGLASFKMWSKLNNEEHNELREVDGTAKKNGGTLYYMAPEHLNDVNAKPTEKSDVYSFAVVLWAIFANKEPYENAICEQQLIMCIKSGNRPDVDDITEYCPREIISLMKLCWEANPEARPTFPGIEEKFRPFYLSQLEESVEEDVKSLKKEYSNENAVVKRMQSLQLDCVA

Usually EC50 stands for the concentration that produces a half-maximal response. Turning to `N#Cc1cc(N2CCC3(CC2)O[C@@H]2CC[C@@H](c4ccccc4F)N2C3=O)ncn1` [Example 4.104, 6-((5′S,7a′R)-5′-(2-fluorophenyl)-3′-oxotetrahydro-3′H-spiro[piperidine-4,2′-pyrrolo[2,1-b]oxazol]-1-yl)pyrimidine-4-carbonitrile], the EC50 worked out at 0.0339 µM.

Regarding `N#Cc1cc(C(=O)N2CCC3(CC2)O[C@@H]2CC[C@@H](c4cc(F)cc(F)c4)N2C3=O)ccc1F` [Example 5.14, 5-((5′S,7a′R)-5′-(3,5-difluorophenyl)-3′-oxo-tetrahydro-3′H-spiro [piperidine-4,2′-pyrrolo-[2,1-b]oxazole]-1-carbon-yl)-2-fluorobenzonitrile], the concentration giving a half-maximal response (EC50) was less than 0.025 µM.

For the compound `COc1cccc(F)c1C(=O)N1CCC2(CC1)O[C@@H]1CC[C@@H](c3cc(F)cc(F)c3)N1C2=O` [Example 6.72, (5′S,7a′R)-5′-(3,5-difluorophenyl)-1-(2-fluoro-6-methoxy-benzene-1-carbonyl) tetrahydro-3′H-spiro [piperidine-4,2′-pyrrolo[2,1-b][1,3]-oxazol]-3′-one], the EC50 is 0.0413 µM.

Consider `COc1cccc(C(=O)N2CCC3(CC2)O[C@@H]2CC[C@@H](c4cc(F)cc(F)c4)N2C3=O)n1` [Example 6.12, (5′S,7a′R)-5′-(3,5-difluorophenyl)-1-(6-methoxypyridine-2-carbonyl)tetrahydro-3′H-spiro[piperidine-4,2′-pyrrolo[2,1-b] [1,3]oxazol]-3′-one], for which the EC50 worked out at 0.0251 µM.

On to `CC1CN(c2cccc3ncnn23)CCC12O[C@@H]1CC[C@@H](c3ccccc3)N1C2=O` (stereo partly drawn) [Example 4.243, (4R,5′S,7a′R)-3-methyl-5′-phenyl-1-([1,2,4]triazolo[1,5-a]pyridin-5-yl)tetrahydro-3′H-spiro[piperidine-4,2′-pyrrolo[2,1-b] [1,3]oxazol]-3′-one], for which the EC50 was 0.0263 µM.

In the case of `O=C1N2[C@@H](CC[C@H]2c2ccccc2F)OC12CN(c1cccc3ncnn13)C2` [Example 13.20, (5′S,7a′R)-1-([1,2,4]triazolo[1,5-a]pyridin-5-yl)-5′-(2-fluorophenyl)tetrahydro-3′H-spiro[azetidine-3,2′-pyrrolo[2,1-b]oxazol]-3′-one, TFA salt], the 50% effective concentration (EC50) turned out to be 0.0249 µM.

As for `C#Cc1cccc(C(=O)N2CCC3(CC2)O[C@@H]2CC[C@@H](c4cc(F)cc(F)c4)N2C3=O)c1` [Example 5.25, (5′S,7a′R)-5′-(3,5-difluoro-phenyl)-1-(3-ethynyl-benzoyl)tetrahydro-3′H-spiro[piperidine-4,2′-pyrrolo[2,1-b]oxazol]-3′-one], the EC50 was less than 0.025 µM.

Consider `CC1CN(C(=O)c2ccccc2)CCC12O[C@@H]1CC[C@@H](c3cc(F)cc(F)c3)N1C2=O` (single isomer, unassigned) [Example 2.4, (3[R or S],4[R or S], 5′S,7a′R)-1-benzoyl-5′-(3,5-difluorophenyl)-3-methyltetrahydro-3′H-spiro[piperidine-4,2′-pyrrolo[2,1-b]oxazol]-3′-one], for which the EC50 was less than 0.025 µM.

In the case of `CSc1nc(C)cc(N2CCC3(CC2)O[C@@H]2CC[C@@H](c4ccccc4)N2C3=O)n1` [Example 4.36, (5′S,7a′R)-1-[6-methyl-2-(methylsulfanyl)pyrimidin-4-yl]-5′-phenyltetrahydro-3′H-spiro[piperidine-4,2′-pyrrolo[2,1-b] [1,3]oxazol]-3′-one], the EC50 is 0.0374 µM.

For `Cc1nccnc1[C@@H]1CC[C@H]2OC3(CCN(c4ccnc5c(F)cnn45)CC3)C(=O)N21` [Example 4.144, (5′S,7a′R)-1-(3-fluoropyrazolo[1,5-a]pyrimidin-7-yl)-5′-(3-methylpyrazin-2-yl)tetrahydro-3′H-spiro[piperidine-4,2′-pyrrolo[2,1-b] [1,3]oxazol]-3′-one], the EC50 was determined as 0.0417 µM.

As for `N#Cc1ccccc1C(=O)N1CCC2(CC1)O[C@@H]1CC[C@@H](c3cccc(F)c3)N1C2=O` [Example 6.129, 2-[(5′S,7a′R)-5′-(3-fluorophenyl)-3′-oxotetrahydro-1H,3′H-spiro[piperidine-4,2′-pyrrolo[2,1-b][1,3]-oxazole]-1-carbonyl] benzonitrile], the EC50 was 0.188 µM.

As for `O=C1N2[C@@H](CC[C@H]2c2cc(F)cc(F)c2)OC12CN(c1cccc3ncnn13)C2` [Example 4.135, (5′S,7a′R)-5′-(3,5-difluorophenyl)-1-([1,2,4]triazolo[1,5-a]pyridin-5-yl)tetrahydro-3′H-spiro[azetidine-3,2′-pyrrolo[2,1-b] [1,3]oxazol]-3′-one], the EC50 came out at 0.0637 µM.

Take `O=C(c1ccccc1)N1C2CCC1CC1(C2)O[C@@H]2CC[C@@H](c3cc(F)cc(F)c3)N2C1=O` (stereo partly drawn) [Example 6.134, (5′S,7a′R)-8-(benzene-carbonyl)-5′-(3,5-difluorophenyl)tetra-hydro-3′H-spiro[8-azabicyclo[3.2.1]-octane-3,2′-pyrrolo-[2,1-b][1,3]oxazol]-3′-one]: the EC50 worked out at 0.0924 µM.

As for `O=C(c1cc(C2CC2)on1)N1CCC2(CC1)O[C@@H]1CC[C@@H](c3cc(F)cc(F)c3)N1C2=O` [Example 6.25, (5′S,7a′R)-1-(5-cyclo-propyl-1,2-oxazole-3-carbonyl)-5′-(3,5-difluorophenyl)tetra-hydro-3′H-spiro[piperi-dine-4,2′-pyrrolo[2,1-b][1,3]oxazol]-3′-one], the EC50 turned out to be 0.0824 µM.

Regarding `O=C1N2[C@@H](CC[C@H]2c2cc(F)cc(F)c2)OC12CCN(c1ncc(F)c3nncn13)CC2` [Example 13.13, (5′S,7a′R)-5′-(3,5-difluorophenyl)-1-(8-fluoro-[1,2,4]triazolo[4,3-c]pyrimidin-5-yl)tetrahydro-3′H-spiro[piperidine-4,2′-pyrrolo[2,1-b]oxazol]-3′-one, TFA salt], the EC50 was found to be 0.366 µM.

In the case of `N#Cc1cccc(C(=O)N2CCC3(CC2)O[C@@H]2CC[C@@H](c4cc(F)cc(F)c4)N2C3=O)c1` [Example 5.17, 3-((5′S,7a′R)-5′-(3,5-difluorophenyl)-3′-oxo-tetrahydro-3′H-spiro [piperidine-4,2′-pyrrolo-[2,1-b]oxazole]-1-carbon-yl)benzonitrile], the EC50 came out at 0.025 µM.

Turning to `O=C(c1ccc2sncc2c1)N1CCC2(CC1)O[C@@H]1CC[C@@H](c3cc(F)cc(F)c3)N1C2=O` [Example 6.65, (5′S,7a′R)-1-(1,2-benzothiazole-5-carbonyl)-5′-(3,5-difluorophenyl)tetra-hydro-3′H-spiro [piperidine-4,2′-pyrrolo[2,1-b][1,3]-oxazol]-3′-one], the EC50 is less than 0.025 µM.

`O=C1N2[C@@H](CC[C@H]2c2ccccc2)OC12CCN(c1ccnc3c(F)cnn13)CC2F` (single isomer, unassigned) [Example 4.91, (3[R or S],4[S or R], 5′S,7a′R)-3-fluoro-1-(3-fluoropyrazolo[1,5-a]pyrimidin-7-yl)-5′-phenyltetrahydro-3′H-spiro[piperidine-4,2′-pyrrolo[2,1-b]oxazol]-3′-one, TFA salt]: the concentration giving a half-maximal response (EC50) was less than 0.025 µM.

Take `O=C(c1ccccc1F)N1CCC2(CC1)O[C@@H]1CC[C@@H](c3ccccc3F)N1C2=O` [Example 1.16, (5′S,7a′R)-1-(2-fluorobenzoyl)-5′-(2-fluorophenyl)tetrahydro-3′H-spiro[piperidine-4,2′-pyrrolo[2,1-b]oxazol]-3′-one]: the EC50 was less than 0.025 µM.

Take `Cc1c(Br)ccnc1C(=O)N1CCC2(CC1)O[C@@H]1CC[C@@H](c3cc(F)cc(F)c3)N1C2=O` [Example 6.80, (5′S,7a′R)-1-(4-bromo-3-methylpyridine-2-carbonyl)-5′-(3,5-difluorophenyl)tetra-hydro-3′H-spiro [piperidine-4,2′-pyrrolo[2,1-b][1,3]-oxazol]-3′-one]: the EC50 came to 0.153 µM.

For `O=C1N2[C@@H](CC[C@H]2c2ccccc2)OC12CCN(c1ncc(-c3cocn3)cc1F)CC2` [Example 21.6, (5′S,7a′R)-1-[3-fluoro-5-(1,3-oxazol-4-yl)pyridin-2-yl]-5′-phenyltetrahydro-3′H-spiro[piperidine-4,2′-pyrrolo[2,1-b][1,3]oxazol]-3′-one], the EC50 is less than 0.025 µM.

For `O=C(c1ccccc1F)N1CCC2(CC1)O[C@@H]1CC[C@@H](c3cc(F)cc(F)c3)N1C2=O` [Example 1.9, (5′S,7a′R)-5′-(3,5-difluorophenyl)-1-(2-fluorobenzene-1-carbonyl)tetrahydro-3′H-spiro[piperidine-4,2′-pyrrolo[2,1-b] [1,3]oxazol]-3′-one], the EC50 was less than 0.025 µM.

As for `O=C(c1ccccc1)N1CCC2(CC1)O[C@@H]1CC[C@@H](c3cnsc3)N1C2=O` [Example 17.7, (5′S,7a′R)-1-benzoyl-5′-(isothiazol-4-yl)tetrahydro-3′H-spiro[piperidine-4,2′-pyrrolo[2,1-b]oxazol]-3′-one], the EC50 came to 0.558 µM.

The values are drawn from US12180226B2, “Spirotricycle RIPK1 inhibitors and methods of uses thereof” (Merck Sharp & Dohme LLC, priority 2021, dated 2024).
